Data published in ChEMBL document CHEMBL3351666, “Nocatriones A and B, photoprotective tetracenediones from a marine-derived Nocardiopsis sp” (J Nat Prod, 2014).

Tests used:
[1] = Reduction in MMP1 secretion in human ScienCell 2320 cells at 10 uM by ELISA method; format: functional
[2] = Cytotoxicity against human ScienCell 2320 cells exposed to 144 mJ/cm2 UVB irradiation assessed as reduction in cell viability at 1 to 10 uM incubated for 72 hrs by MTT assay; format: cell-based; conditions: sciencell 2320, 72 h
[3] = Cytotoxicity against human MCTT MC1233 cells exposed to 144 mJ/cm2 UVB irradiation assessed as reduction in cell viability at 1 to 10 uM incubated for 72 hrs by MTT assay; format: cell-based; conditions: mctt mc1233, 72 h
[4] = Reduction in UVB radiation-induced MMP1 secretion in human ScienCell 2320 cells at 10 uM exposed to 144 mJ/cm2 UVB irradiation by ELISA method; format: functional; conditions: ScienCell 2320, light or radiation study
[5] = Cytotoxicity against human ScienCell 2320 cells assessed as reduction in cell viability at 1 to 10 uM incubated for 72 hrs by MTT assay; format: cell-based; conditions: sciencell 2320, 72 h
MCTT MC1233 = assay: Reduction in UVB radiation-induced MMP1 secretion in human MCTT MC1233 cells exposed to 144 mJ/cm2 UVB irradiation by ELISA method; format: functional, cell-based
[6] = Cytotoxicity against human MCTT MC1233 cells assessed as reduction in cell viability at 1 to 10 uM incubated for 72 hrs by MTT assay; format: cell-based; conditions: mctt mc1233, 72 h
[7] = Reduction in UVB radiation-induced MMP1 secretion in human MCTT MC1233 cells at 10 uM exposed to 144 mJ/cm2 UVB irradiation by ELISA method; format: functional; conditions: MCTT MC1233, light or radiation study
[8] = Reduction in MMP1 secretion in human MCTT MC1233 cells at 10 uM by ELISA method; format: functional
[9] = Reduction in MMP1 secretion in human MCTT MC1233 cells at 5 uM by ELISA method; format: functional

SMILES | inhibition at 10 µM [1] | Activity [2] | Activity [3] | inhibition at 10 µM [4] | Activity [5] | inhibition (MCTT MC1233) | Activity [6] | inhibition at 10 µM [7] | inhibition at 10 µM [8] | inhibition at 5 µM [9]
Cc1c(-c2cc(O)cc(=O)o2)c(O)cc2cc3c(c(O)c12)C(=O)c1c(O)cc(O)cc1C3=O | 93% | Non-toxic | Non-toxic | 91% | Non-toxic | Dose-dependent effect | Non-toxic | 18% |  | 
Cc1c2c(cc(O)c1-c1cc(O)cc(=O)o1)C(=O)c1cc3cc(O)cc(O)c3c(O)c1C2=O | 99% | Non-toxic | Non-toxic | 99% | Non-toxic | Dose-dependent effect | Non-toxic | 65% | 83% | 58%
